Measurements taken from patent US20110020312A1, “METHODS FOR TREATMENT OF METABOLIC DISORDERS USING EPIMETABOLIC SHIFTERS, MULTIDIMENSIONAL INTRACELLULAR MOLECULES, OR ENVIRONMENTAL INFLUENCERS” (priority 2009, published 2011).

Key:
PaCa2 cells = experiment: Nexin assay for apoptosis (Annexin-V-PE/7-AAD flow cytometry), 24 h Q10; assay type: cell-based; conditions: 50 μM Q10 and 100 μM Q10, 24 hours
Excerpt: (§1) The 7AAD dye will enter into cells with permeabilized cell membranes; primarily those cells that are in late apoptosis. Annexin-V-PE is a dye that binds to Phosphotidyl serine, which is exposed on the outer surface of the plasma membrane in early apoptotic cells. The Nexin reagent thus can be used to differentiate between different populations of apoptotic cells in a flow cytometer.

SCC cells [1] = experiment: Real-time PCR Heat Shock Protein Array; assay type: cell-based; conditions: 100 μM
Excerpt: (§2) The control cells were untreated cells.
Heat Shock Arrays were run for SCC cells and the data of regulated genes is summarized below in Table 13.

SCC cells [2] = experiment: Real-time PCR Diabetes Array; assay type: cell-based; conditions: 100 μM
Excerpt: as §2

[3] = test system: Pyruvate Kinase M2 (PKM2); experiment: Western blot, Pyruvate Kinase M2 levels; assay type: cell-based, human
Protocol: The samples were processed and run on a 4-12% Bis-Tris Novex NuPAGE gel as described above. The gels were run, transferred and stained essentially as described above.
The lactate dehydrogenase blots were stripped by incubating for 30 minutes with methanol, followed by two 10 minute washes with TBS-T, then 30 minutes of incubation with Stripping buffer at 50 deg C., and followed by two washes with 100 ml or more of TBS-T for 30′ each. The 2 blots were scanned in laser scanner to check for complete stripping. The blots were activated with methanol for 5 seconds, washed with water for 5 minutes, and TBST for 15 minutes. The blots were blocked for 1 hour with 5% blocking reagent in TBS-T at room temperature and then washed 3 times with TBS-T (1×-15′; 2×5′ each) and probed with the rabbit polyclonal antibody for Pyruvate Kinase M2 in 5% BSA (NOVUS BIOLOGICALS catalog #H00005315-DO1P) at 1:500 dilution overnight at 4 deg C. with shaking. After the overnight incubation with primary antibody for Pyruvate Kinase M2, the membranes were washed 3 times with TBS-T (1×-15′; 2×5′ each) and probed with the secondary antibody (antirabbit; 1:10,000 dilution) for 1 h on the orbital tilting shaker at room temperature. After 1 h of incubation with secondary antibodies, the blots were washed 3 times with TBS-T (1×-15′; 2×5′ each) and then incubated with ECF reagent for 5 minutes and then each blot scanned with 5100 Fuji Laser scanner at 25 uM resolution, 16 bit, green laser, at 400V and at 500 V.
The HASMC samples were processed and the gels were run, transferred, stained and scanned essentially as described above.
The above blots were stripped by incubating for 30 minutes with methanol, followed by two 10 minute washes with TBS-T, then 30 minutes of incubation with Stripping buffer at 50 deg C., and followed by two washes with 100 ml or more of TBS-T for 30′ each. The blots were scanned in laser scanner to check for complete stripping. The blots were activated with methanol for 5 seconds, washed with water for 5 minutes, and TBST for 15 minutes. The blots were blocked for 1 hour with 5% blocking reagent in TBS-T at room temperature and then washed 3 times with TBS-T (1×-15′; 2×5′ each) and probed with the primary antibody for PKM2, SDHB or SDHC in 5% BSA in TBS-T by incubation overnight at 4 deg C. with gentle shaking. The primary antibody for SDHC (ABNOVA H00006391-MO2; antimouse) was at 1:500 dilution. The primary antibody for SDHB was from Abcam ab4714-200; antimouse; at 1:1000 dilution. The primary antibody for Pyruvate Kinase M2 (PKM2) was from Novus Biologicals H00005315-D0IP; antirabbit; at 1:500 dilution. After incubation with primary antibodies, the membranes were washed 3 times with TBS-T (1×-15′; 2×5′ each) and probed with the secondary antibody (SDHB & C antimouse; and PKM2 antirabbit; 1:10,000 dilution) for 1 h on the orbital tilting shaker at room temperature. After 1 h of incubation, the blots were washed 3 times with TBS-T (1×-15′; 2×5′ each) and incubated with ECF reagent for 5 minutes and then each blot scanned with 5100 Fuji Laser scanner at 25 uM resolution, 16 bit, green laser, at 400V and at 500 V.

[4] = test system: HepG2 (liver cancer) cells; experiment: PCR Apoptosis Array; assay type: cell-based
[5] = test system: HAEC, MCF-7, HepG2 and PC-3 cell lines; experiment: OCR and ECAR in other normal and cancer cell lines (data not shown); assay type: cell-based; conditions: absence and/or presence of stressors (hyperglycemia, hypoxia, lactic acid)
Protocol: A similar comparison of OCR and ECAR values (data not shown) were determined in numerous other normal and cancer cells lines, including: HAEC (normal human aortic endothelial cells), MCF-7 (breast cancer), HepG2 (liver cancer) and highly metastatic PC-3 (prostate cancer) cell lines. […] Thus, the overall effect of CoQ10 in the treatment of cancer, including cell death, is an downstream effect of its collective influence on proteomic, genomic, metabolomic outcomes in concert with shifting of the cellular bioenergetics from glycolysis to mitochondrial OXPHOS.

SKBr3 cells = experiment: Nexin assay for apoptosis, 24 h Q10; assay type: cell-based, human; conditions: 50 μM or 100 μM Q10, 24 hours
Excerpt: as §1

## COC1=C(OC)C(=O)C(C/C=C(\C)CC/C=C(\C)CC/C=C(\C)CC/C=C(\C)CC/C=C(\C)CC/C=C(\C)CC/C=C(\C)CC/C=C(\C)CC/C=C(\C)CCC=C(C)C)=C(C)C1=O [Q10, Coenzyme Q10]
PaCa2 cells
  increase in both early and late apoptotic cells: 5-10 % of gated cells
SCC cells [1]; at 6 hours
  DNAJA1 gene Regulation: Up regulated at 6
  DNAJB5 gene Regulation: Down regulated
  DNAJB13 gene Regulation: Down regulated
  DNAJC4 gene Regulation: Down regulated
  DNAJC5B gene Regulation: Down regulated
  DNAJC12 gene Regulation: Down regulated
  HSPA8 gene Regulation: Up regulated at 6
  HSPH1 gene Regulation: Up regulated at 6
SCC cells [1]; at 24 hours
  CCT6B gene Regulation: Down regulated
SCC cells [2]; at 6 and 24 hours
  TNFRSF1A gene Regulation: Down regulated
SCC cells [2]; at 6 hours
  G6PD gene Regulation: Down regulated
  ICAM1 gene Regulation: Down regulated
  INPPL1 gene Regulation: Down regulated
  NOS3 gene Regulation: Down regulated
  PIK3CD gene Regulation: Down regulated
  PPARA gene Regulation: Down regulated
  PYGL gene Regulation: Down regulated
  SREBF1 gene Regulation: Down regulated
  STXBP2 gene Regulation: Down regulated
  TNF gene Regulation: Down regulated
  VEGFA gene Regulation: Down regulated
[3]; HASMC, 5g48-50
  Pyruvate Kinase Muscle form 2 Upper Band Normalized Intensity: 811
[3]; HASMC, 5g48-100
  Pyruvate Kinase Muscle form 2 Upper Band Normalized Intensity: 611
[3]; HASMC, 22G24-50
  Pyruvate Kinase Muscle form 2 Upper Band Normalized Intensity: 477
[3]; HASMC, 22G24-100
  Pyruvate Kinase Muscle form 2 Upper Band Normalized Intensity: 701
[3]; HASMC, 22G48-50
  Pyruvate Kinase Muscle form 2 Upper Band Normalized Intensity: 595
[3]; HASMC, 22G48-100
  Pyruvate Kinase Muscle form 2 Upper Band Normalized Intensity: 496
[3]; HepG2, 5g-50, 24 h
  Pyruvate Kinase Muscle form 2 Upper Band Normalized Volume: 29269
[3]; HepG2, 5g-50, 48 h
  Pyruvate Kinase Muscle form 2 Upper Band Normalized Intensity: 303
[3]; HepG2, 5g-100, 24 h
  Pyruvate Kinase Muscle form 2 Upper Band Normalized Volume: 18307
[3]; HepG2, 5g-100, 48 h
  Pyruvate Kinase Muscle form 2 Upper Band Normalized Intensity: 354
[3]; HepG2, 22G-50, 24 h
  Pyruvate Kinase Muscle form 2 Upper Band Normalized Volume: 22294
[3]; HepG2, 22G-50, 48 h
  Pyruvate Kinase Muscle form 2 Upper Band Normalized Intensity: 562
[3]; HepG2, 22G-100, 24 h
  Pyruvate Kinase Muscle form 2 Upper Band Normalized Volume: 19560
[3]; HepG2, 22G-100, 48 h
  Pyruvate Kinase Muscle form 2 Upper Band Normalized Intensity: 601
[3]; cancer cells tested
  PKM2 expression: dose-dependent decrease
[3]; normal cells
  PKM2 expression: no major changes
[4]; 100 uM Q10, 16 hours
  BAG1 mRNA downregulated over control: approximately 6 fold
  CASP9 mRNA upregulated over control: approximately 61 fold
  TNFRSF1A mRNA downregulated over control: ~4 fold
[4]; 100 uM Q10, 48 hours
  BAG1 mRNA upregulated over control: ~1 fold
  CASP9 mRNA upregulated over control: approximately 55 fold
  TNFRSF1A mRNA upregulated over control: ~1 fold
[5]
  OCR and ECAR values: shift in OCR and ECAR values representative of values observed in a normal cells
SKBr3 cells
  early and late apoptosis: did not show any significant increases
